This is an account of results in ChEMBL document CHEMBL6078669, “Stereoisomers of cannabidiols and their pharmacological activities - A potentially novel direction for cannabinoids” (Bioorg Med Chem, 2025).

Broadly, the IC50 is the concentration needed to halve the response being measured. The term EC50 denotes the concentration giving half of the maximal effect. The term Ki denotes the dissociation constant of the complex between target and ligand, obtained from inhibition or displacement. Read a low Ki as a stronger hold on the target.

In test [1] the target is Transient receptor potential cation channel subfamily M member 8 (Rattus norvegicus, UniProt Q8R455). The test is described as follows: Antagonist activity at recombinant rat TRPM8 expressed in HEK293 cells assessed as inhibition of icillin-induced intracellular calcium level preincubated with compound for 5 mins followed by icillin addition by Fluo-4AM based calcium assay. The class given is cell-based. In general terms: Calcium flux is commonly read through the fluorescence of an indicator in the cells.

In test [2] the target is T1, Fatty-acid amide hydrolase 1 (Mus musculus, UniProt O08914).
T1 sequence (O08914 whole entry): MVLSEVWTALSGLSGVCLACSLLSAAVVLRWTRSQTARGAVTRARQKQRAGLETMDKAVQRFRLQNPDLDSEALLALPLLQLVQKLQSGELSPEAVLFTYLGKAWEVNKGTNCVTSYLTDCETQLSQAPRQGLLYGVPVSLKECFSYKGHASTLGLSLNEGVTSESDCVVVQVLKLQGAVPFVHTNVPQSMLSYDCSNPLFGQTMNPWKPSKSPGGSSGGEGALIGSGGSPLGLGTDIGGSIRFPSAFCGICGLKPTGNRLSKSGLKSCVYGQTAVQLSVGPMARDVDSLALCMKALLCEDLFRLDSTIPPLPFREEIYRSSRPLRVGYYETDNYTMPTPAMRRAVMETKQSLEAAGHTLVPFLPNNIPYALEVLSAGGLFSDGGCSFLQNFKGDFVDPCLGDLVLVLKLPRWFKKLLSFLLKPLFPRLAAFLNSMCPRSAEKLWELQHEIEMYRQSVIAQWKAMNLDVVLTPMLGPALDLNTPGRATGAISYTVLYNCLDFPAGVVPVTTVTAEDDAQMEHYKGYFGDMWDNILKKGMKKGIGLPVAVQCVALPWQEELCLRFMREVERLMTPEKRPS
Nature of the test: Inhibition of FAAH-mediated [14C]-AEA hydrolysis in mouse N18TG2 cell membrane incubated for 30 mins by scintillation counting. The test is classed as cell membranes.

Test [3] addresses T2, Transient receptor potential cation channel subfamily V member 1 (Homo sapiens, UniProt Q8NER1). The test is described as follows: Agonist activity at recombinant human TRPV1 expressed in HEK293 cells assessed as increase in [Ca2+]i level by Fluo-4AM based calcium assay. The test is classed as cell-based.
Test [4] deals with T3, Equilibrative nucleoside transporter 1 (Homo sapiens, UniProt Q99808).
T3 sequence (Q99808 whole entry): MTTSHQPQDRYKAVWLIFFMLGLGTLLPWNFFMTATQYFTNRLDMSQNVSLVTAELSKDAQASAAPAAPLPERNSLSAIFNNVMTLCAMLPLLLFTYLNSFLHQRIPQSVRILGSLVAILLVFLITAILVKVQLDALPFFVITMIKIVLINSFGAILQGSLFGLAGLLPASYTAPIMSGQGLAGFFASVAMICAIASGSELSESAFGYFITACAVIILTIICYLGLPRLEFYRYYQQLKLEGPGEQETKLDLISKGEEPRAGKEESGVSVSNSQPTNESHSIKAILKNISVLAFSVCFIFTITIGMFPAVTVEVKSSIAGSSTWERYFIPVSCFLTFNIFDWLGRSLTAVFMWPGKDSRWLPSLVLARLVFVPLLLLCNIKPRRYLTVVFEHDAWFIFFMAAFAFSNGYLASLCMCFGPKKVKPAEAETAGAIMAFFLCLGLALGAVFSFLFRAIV
Nature of the test: Inhibition of ENT-1 (unknown origin).

Test [5] deals with T4, D(2) dopamine receptor (Homo sapiens, UniProt P14416). The test is described as follows: Partial agonist activity at D2-low receptor (unknown origin).
The target of test [6] is T5, Transient receptor potential cation channel subfamily V member 2 (Rattus norvegicus, UniProt Q9WUD2).
T5 sequence (Q9WUD2 whole entry): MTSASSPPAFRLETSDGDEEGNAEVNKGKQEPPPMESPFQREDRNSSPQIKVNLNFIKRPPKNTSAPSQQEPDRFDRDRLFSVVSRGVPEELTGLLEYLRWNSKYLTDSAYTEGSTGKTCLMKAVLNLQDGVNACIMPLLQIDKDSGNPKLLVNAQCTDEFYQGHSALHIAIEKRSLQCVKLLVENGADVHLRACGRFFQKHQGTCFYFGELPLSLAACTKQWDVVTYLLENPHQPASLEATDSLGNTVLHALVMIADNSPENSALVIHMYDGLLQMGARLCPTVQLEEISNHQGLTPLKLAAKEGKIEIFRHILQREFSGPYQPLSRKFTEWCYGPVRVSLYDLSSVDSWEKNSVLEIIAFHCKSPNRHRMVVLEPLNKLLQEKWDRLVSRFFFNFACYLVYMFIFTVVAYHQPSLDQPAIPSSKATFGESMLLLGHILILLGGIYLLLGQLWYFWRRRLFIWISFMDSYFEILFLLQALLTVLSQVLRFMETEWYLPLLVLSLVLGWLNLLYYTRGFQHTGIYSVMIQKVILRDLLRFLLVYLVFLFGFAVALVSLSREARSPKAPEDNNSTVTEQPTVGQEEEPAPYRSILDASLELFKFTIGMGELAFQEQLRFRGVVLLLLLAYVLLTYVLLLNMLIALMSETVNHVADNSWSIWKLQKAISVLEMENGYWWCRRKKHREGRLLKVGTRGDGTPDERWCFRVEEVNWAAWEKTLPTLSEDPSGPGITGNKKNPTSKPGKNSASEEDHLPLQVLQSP
The test is described as follows: Agonist activity at recombinant rat TRPV2 expressed in HEK293 cells assessed as increase in [Ca2+]i by Fluo-4AM based calcium assay. The test is classed as cell-based.

For test [7], the target named is Sodium channel protein type 9 subunit alpha (Homo sapiens, UniProt Q15858). The test is described as follows: Inhibition of human Nav1.7 expressed in HEK293 cells by whole cell electrophysiology recording. The test is classed as cell-based.
Test [8] deals with Transient receptor potential cation channel subfamily A member 1 (Rattus norvegicus, UniProt Q6RI86). The test is described as follows: Agonist activity at recombinant rat TRPA1 expressed in HEK293 cells assessed as increase in [Ca2+]i by Fluo-4AM based calcium assay. The test is classed as cell-based.
Test [9] has as its target T6, 5-hydroxytryptamine receptor 1A (Homo sapiens, UniProt P08908).
T6 sequence (P08908 whole entry): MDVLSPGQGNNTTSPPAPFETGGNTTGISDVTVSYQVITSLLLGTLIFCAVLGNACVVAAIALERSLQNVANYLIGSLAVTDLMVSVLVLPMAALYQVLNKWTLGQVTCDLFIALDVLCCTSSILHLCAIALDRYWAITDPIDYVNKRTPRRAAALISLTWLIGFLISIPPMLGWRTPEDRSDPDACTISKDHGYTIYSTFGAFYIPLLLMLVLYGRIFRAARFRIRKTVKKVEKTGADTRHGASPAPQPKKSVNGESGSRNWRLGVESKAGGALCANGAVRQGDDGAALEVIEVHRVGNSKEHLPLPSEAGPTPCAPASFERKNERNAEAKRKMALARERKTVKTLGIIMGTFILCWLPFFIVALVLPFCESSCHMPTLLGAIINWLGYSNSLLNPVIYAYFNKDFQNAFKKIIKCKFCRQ
The test is described as follows: Agonist activity at 5-HT1A (unknown origin). The class given is functional.

Test [10] addresses G-protein coupled receptor 55 (Homo sapiens, UniProt Q9Y2T6). Nature of the test: Antagonist activity at GPR55 (unknown origin).
Test [11] is described as follows: Inhibition of [14C]-arachidonoylethanolamide uptake in rat RBL-2H3 cells assessed as increase in AEA level incubated for 5 mins by scintillation counting. The class given is functional, cell-based. The conditions noted are these: RBL-2H3, 5 min.
The target in test [12] is T2, Transient receptor potential cation channel subfamily V member 1. Nature of the test: Agonist activity at human TRPV1 receptor expressed in HEK293 cells assessed as effect on [Ca2+]i preincubated with capsazepine for 30 mins followed by compound addition by Fluo-3 probe based fluorescence analysis. The class given is cell-based.
Test [13] concerns the target T4, D(2) dopamine receptor. Nature of the test: Partial agonist activity at D2-high receptor (unknown origin).

T2 sequence (Q8NER1 whole entry): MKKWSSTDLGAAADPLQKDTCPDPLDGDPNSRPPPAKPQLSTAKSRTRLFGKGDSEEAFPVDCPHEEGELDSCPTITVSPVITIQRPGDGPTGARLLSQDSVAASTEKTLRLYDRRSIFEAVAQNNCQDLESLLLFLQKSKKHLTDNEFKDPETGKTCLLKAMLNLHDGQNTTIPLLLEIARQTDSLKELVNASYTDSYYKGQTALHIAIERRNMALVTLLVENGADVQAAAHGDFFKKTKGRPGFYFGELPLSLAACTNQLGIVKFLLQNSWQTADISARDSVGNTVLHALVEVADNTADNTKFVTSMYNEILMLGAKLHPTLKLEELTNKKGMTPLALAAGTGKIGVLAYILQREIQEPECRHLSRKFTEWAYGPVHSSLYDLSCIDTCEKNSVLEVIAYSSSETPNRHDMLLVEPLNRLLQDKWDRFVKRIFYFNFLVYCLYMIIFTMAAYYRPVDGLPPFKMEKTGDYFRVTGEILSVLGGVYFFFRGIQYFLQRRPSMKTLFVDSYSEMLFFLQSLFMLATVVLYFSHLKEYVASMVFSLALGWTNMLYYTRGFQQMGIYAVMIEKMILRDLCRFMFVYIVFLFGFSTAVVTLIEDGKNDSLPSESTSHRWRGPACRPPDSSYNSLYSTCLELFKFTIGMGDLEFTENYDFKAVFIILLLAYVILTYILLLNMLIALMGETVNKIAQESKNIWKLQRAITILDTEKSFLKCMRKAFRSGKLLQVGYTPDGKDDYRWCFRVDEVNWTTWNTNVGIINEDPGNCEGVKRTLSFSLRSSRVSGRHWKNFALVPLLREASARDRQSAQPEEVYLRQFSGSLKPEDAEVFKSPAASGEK
T4 sequence (P14416 whole entry): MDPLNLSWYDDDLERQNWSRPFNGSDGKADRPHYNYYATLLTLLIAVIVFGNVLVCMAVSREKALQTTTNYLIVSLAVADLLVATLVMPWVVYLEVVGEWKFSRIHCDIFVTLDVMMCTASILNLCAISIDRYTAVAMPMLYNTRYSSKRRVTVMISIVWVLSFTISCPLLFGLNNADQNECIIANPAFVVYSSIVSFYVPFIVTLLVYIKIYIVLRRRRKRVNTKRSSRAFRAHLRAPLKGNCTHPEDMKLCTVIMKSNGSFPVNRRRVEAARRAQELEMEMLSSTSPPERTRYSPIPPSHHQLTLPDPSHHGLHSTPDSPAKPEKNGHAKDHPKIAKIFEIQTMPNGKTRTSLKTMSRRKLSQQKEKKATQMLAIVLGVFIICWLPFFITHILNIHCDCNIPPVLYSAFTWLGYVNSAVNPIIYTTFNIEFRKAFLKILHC
Chain of Transient receptor potential cation channel subfamily A member 1 (Q6RI86 whole entry): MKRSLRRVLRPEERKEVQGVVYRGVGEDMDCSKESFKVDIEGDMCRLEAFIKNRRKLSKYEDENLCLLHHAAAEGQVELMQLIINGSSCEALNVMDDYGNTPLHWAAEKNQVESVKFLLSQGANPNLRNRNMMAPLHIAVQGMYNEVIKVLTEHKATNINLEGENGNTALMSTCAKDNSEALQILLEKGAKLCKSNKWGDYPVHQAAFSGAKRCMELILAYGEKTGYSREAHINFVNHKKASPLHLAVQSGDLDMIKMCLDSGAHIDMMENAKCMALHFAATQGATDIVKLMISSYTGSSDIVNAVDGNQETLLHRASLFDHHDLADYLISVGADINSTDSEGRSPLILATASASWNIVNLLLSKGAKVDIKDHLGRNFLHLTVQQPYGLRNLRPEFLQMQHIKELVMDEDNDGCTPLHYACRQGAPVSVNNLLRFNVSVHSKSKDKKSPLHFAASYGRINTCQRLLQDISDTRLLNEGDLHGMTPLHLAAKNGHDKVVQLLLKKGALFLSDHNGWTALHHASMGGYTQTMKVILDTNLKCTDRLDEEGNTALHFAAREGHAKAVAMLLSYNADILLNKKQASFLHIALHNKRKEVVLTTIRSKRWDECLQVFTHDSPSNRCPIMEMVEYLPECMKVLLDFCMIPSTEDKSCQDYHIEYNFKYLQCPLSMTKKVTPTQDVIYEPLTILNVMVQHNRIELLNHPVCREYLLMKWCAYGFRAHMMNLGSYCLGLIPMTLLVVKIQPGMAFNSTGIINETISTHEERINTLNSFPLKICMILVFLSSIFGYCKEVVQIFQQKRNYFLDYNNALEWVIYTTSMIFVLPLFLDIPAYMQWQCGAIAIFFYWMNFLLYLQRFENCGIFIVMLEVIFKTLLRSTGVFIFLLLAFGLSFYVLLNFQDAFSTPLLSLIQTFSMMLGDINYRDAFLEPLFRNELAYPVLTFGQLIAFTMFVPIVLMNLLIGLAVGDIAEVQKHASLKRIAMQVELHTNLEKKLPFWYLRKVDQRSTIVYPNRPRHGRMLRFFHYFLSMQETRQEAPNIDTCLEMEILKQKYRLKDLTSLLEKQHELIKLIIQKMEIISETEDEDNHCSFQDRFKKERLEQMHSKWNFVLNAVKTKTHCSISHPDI
Chain of Sodium channel protein type 9 subunit alpha (Q15858 whole entry): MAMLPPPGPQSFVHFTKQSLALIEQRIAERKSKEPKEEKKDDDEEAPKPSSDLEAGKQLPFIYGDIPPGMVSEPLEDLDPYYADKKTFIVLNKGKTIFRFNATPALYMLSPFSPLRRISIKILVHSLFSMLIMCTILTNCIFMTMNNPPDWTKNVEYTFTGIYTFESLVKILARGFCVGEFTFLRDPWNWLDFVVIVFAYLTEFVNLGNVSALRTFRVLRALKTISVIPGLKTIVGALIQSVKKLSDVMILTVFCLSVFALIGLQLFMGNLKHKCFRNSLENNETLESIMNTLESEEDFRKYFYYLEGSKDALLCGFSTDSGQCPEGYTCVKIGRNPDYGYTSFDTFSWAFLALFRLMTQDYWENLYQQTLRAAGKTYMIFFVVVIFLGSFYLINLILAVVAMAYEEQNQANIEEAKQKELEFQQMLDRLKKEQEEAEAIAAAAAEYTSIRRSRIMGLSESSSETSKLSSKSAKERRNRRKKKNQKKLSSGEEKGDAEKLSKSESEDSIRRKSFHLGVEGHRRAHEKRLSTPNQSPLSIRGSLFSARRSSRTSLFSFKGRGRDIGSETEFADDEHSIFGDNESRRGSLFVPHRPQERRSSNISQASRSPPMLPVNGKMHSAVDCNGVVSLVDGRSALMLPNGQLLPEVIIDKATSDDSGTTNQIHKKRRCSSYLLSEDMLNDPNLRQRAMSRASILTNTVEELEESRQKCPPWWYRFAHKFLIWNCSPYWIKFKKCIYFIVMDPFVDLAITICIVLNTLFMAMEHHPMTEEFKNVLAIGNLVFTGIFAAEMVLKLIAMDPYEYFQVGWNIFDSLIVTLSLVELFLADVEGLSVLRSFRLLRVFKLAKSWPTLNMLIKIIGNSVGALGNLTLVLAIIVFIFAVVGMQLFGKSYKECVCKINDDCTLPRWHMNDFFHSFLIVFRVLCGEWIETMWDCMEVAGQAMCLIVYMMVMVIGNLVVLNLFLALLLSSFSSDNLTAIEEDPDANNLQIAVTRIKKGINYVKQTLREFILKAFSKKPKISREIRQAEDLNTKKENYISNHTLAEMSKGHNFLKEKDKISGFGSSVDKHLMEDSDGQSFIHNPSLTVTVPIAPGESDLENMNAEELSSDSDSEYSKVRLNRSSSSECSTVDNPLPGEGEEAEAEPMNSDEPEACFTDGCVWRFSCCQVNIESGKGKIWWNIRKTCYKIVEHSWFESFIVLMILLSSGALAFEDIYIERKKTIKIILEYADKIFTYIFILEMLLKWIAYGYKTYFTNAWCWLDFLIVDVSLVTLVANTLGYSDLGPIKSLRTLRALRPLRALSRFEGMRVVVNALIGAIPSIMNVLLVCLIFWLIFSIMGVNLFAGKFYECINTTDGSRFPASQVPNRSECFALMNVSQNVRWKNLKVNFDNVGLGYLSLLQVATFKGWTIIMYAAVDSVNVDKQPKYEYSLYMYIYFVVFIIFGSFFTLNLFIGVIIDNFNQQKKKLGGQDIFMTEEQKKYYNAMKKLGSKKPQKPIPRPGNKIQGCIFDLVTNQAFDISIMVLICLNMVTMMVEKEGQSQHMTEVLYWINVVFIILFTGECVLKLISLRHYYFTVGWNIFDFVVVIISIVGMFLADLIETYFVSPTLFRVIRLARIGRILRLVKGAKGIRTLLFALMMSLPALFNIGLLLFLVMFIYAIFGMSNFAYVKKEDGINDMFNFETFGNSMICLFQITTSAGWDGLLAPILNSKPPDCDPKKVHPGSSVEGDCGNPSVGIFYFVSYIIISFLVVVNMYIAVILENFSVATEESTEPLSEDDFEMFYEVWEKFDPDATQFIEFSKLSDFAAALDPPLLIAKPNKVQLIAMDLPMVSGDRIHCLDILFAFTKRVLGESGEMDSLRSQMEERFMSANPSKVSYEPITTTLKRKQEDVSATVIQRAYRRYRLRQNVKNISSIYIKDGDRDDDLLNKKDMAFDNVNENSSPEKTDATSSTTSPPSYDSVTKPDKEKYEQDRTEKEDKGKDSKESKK
Chain of G-protein coupled receptor 55 (Q9Y2T6 whole entry): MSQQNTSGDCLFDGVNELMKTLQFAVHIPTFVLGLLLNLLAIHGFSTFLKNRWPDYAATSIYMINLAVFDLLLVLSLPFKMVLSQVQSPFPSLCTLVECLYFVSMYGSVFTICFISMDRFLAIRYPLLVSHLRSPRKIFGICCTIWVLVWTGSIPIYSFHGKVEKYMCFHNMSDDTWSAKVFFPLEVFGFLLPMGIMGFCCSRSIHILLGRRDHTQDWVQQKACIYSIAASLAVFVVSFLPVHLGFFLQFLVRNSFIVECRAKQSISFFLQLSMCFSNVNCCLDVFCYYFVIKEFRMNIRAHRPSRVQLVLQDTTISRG

`C=C(C)[C@@H]1CCC(C)=C[C@H]1c1c(O)cc(CCCCC)cc1O` [CANNABIDIOL]: the IC50 in [1] came out at 60 nM; in test [2], 27500 nM; in test [7] it was 1820 nM; in test [10], 445 nM; in [11] it was 22000 nM. Further, the EC50 is 1000 nM in [3]; 1250 nM in test [6]; 110 nM in test [8]; 16000 nM in [9]; 3200 nM in test [12]. The Ki in test [4] came to 250 nM; at D(2) dopamine receptor [5], 2800 nM; at D(2) dopamine receptor [13] it was 0.066 nM.
